The text below walks through data of patent US5011851A, “Imidazole carboxylic acids and esters and inhibition of blood platelet aggregation therewith” (Bristol-Myers Squibb Co., priority 1990, dated 1991).

In brackets after ≈: the same amount, converted by molar mass. Read-outs that look alike come from different tables or passages of the source.

The experiment has as its system ADP-induced aggregation of human platelets. Format: cell-based. The note with it: human platelet rich plasma, vs ADP, read-out: Inhibition of Human Platelet Aggregation IC50 Vs ADP.

Method: IN VITRO INHIBITION OF HUMAN PLATELET AGGREGATION
The human volunteer donor's arm is cleansed with 70% ethyl alcohol. A sterile 20 ml syringe and needle are used to withdraw 20 ml of blood. The blood is immediately added to a test tube containing 3.8% sodium citrate to prevent clotting (1 part citrate to 9 parts blood).
Platelet rich plasma (PRP) was separated by centrifugation for 10 minutes at 1000 rpm (140 xg) from citrated (3.8%) human blood. All glassware used for preparation of PRP is silicon treated. ADP in final concentration of 0.5 meg/mL or 0.05 mL of a collagen suspension prepared according to the method described by Evans, G., et al., J. Exp. Med., 1968, 128, 877-894 was used to induce aggregation. The various compounds tested were dissolved in dimethylsulfoxide (DMSO) so that 5 mol added to the platelet rich plasma would yield the desired test concentration. Vehicle control trials were done and compared with aggregation induced in platelet rich plasma containing various concentrations of the test compounds. Dose response curves were obtained and Inhibitor Concentration (IC50) values calculated.

Regarding `COC(=O)COc1cccc(CCc2nc(-c3ccccc3)c(-c3ccccc3)[nH]2)c1` [Example 1, Methyl [3-[2-(4,5-diphenyl-1H-imidazol-2-yl)ethyl]phenoxy]-acetate], the concentration for half-maximal inhibition (IC50) (Formula II compounds) was found to be 2.4 µg/mL (≈ 5.82 µM).
The same measure, in the same setting: under `O=C(O)COc1cccc(CCc2nc(-c3ccccc3)c(-c3ccccc3)[nH]2)c1` [Example 2, [3-[2-(4,5-diphenyl-1H-imidazol-2-yl)ethyl]phenoxy]-acetic acid] stands 1.2 µg/mL (≈ 3.01 µM).
Consider `COC(=O)COc1cccc(CSc2nc(-c3ccccc3)c(-c3ccccc3)[nH]2)c1` [Example 4, Methyl [3-[[(4,5-diphenyl-1H-imidazol-2-yl)thio]methyl]phenoxy]acetate], for which the IC50 (Formula VIII compounds) was 0.42 µg/mL (≈ 0.976 µM).
Consider `O=C(O)COc1cccc(CSc2nc(-c3ccccc3)c(-c3ccccc3)[nH]2)c1` [Example 5, [3-[[(4,5-Diphenyl-1H-imidazol-2-yl)thio]methyl]phenoxy]acetic Acid], for which, under “Formula VIII compounds”, the IC50 was determined as 0.41 µg/mL (≈ 0.984 µM).
